According to patent US9403832B2, “Pyrazolo[1,5-a]pyrimidine-based compounds, compositions comprising them, and methods of their use” (Lexicon Pharmaceuticals, Inc., priority 2012, dated 2016):

Molecular target: T1, AAK1 (Homo sapiens, UniProt Q2M2I8)
T1 construct: NP_055726.2
Test: P81 filter plate assay
Format: biochemical
Conditions: full-length human AAK1, Mu2 substrate, 33P-ATP
Method: Compounds were serially diluted into a Labcyte LDV plate (Labcyte, cat#LP-0200) using a Mutiprobe (PerkinElmer) and Biomek FX (Beckman Coulter) so that the highest compound concentration was at 96 μM. Compounds were then pinged (75 nL per well) into a Greiner 384-well reaction plate (Greiner, #781076) using an ECHO 550 Liquid Handler (Labcyte). A total of 12 μl reaction buffer (IMAP buffer containing Tween and DTT, from Molecular Devices) was then added to each well of columns 1 and 13 for the negative controls and 12 μl of 2× AAK1 (0.2 nM full-length human protein, NCBI accession no. NP_055726.2) was added to the remaining wells. Enzyme was then pre-incubated with compound for 10 minutes at RT. Reactions were initiated upon Minitrak (PerkinElmer) addition of 12 μl substrate mix containing 2× Mu2 (0.2 μM, full length human protein), 2× cold ATP (2 μM), and 1.3 μCi of hot ^33P-ATP. […] proceeded for one hour at RT. Meanwhile, Millipore 384-well P81 filter plates (Millipore, catalog #MZPHNOW10) were placed on a plate washer (Zoom ZW, from Titertek) and pre-wet with 50 μl 1% phosphoric acid. Kinase reactions were then stopped upon addition of 24 μl of 2% phosphoric acid to each well and the Minitrak was then used to transfer 40 μl from each well into the pre-wet Millipore 384-well P81 filter plates. Reaction mixtures were incubated for 10 minutes at RT in the P81 plates, followed by washing five times with 100 μl/well of 1% phosphoric acid using the Zoom filter washer. The bottom of each filter plate was sealed followed by addition of 20 μl Microscint 40 to each well, sealing the top of the plates with Flashplate cover, and then waiting one hour until reading on the TopCount (PerkinElmer).

T1 sequence (Q2M2I8 1-863 isoform Q2M2I8-2): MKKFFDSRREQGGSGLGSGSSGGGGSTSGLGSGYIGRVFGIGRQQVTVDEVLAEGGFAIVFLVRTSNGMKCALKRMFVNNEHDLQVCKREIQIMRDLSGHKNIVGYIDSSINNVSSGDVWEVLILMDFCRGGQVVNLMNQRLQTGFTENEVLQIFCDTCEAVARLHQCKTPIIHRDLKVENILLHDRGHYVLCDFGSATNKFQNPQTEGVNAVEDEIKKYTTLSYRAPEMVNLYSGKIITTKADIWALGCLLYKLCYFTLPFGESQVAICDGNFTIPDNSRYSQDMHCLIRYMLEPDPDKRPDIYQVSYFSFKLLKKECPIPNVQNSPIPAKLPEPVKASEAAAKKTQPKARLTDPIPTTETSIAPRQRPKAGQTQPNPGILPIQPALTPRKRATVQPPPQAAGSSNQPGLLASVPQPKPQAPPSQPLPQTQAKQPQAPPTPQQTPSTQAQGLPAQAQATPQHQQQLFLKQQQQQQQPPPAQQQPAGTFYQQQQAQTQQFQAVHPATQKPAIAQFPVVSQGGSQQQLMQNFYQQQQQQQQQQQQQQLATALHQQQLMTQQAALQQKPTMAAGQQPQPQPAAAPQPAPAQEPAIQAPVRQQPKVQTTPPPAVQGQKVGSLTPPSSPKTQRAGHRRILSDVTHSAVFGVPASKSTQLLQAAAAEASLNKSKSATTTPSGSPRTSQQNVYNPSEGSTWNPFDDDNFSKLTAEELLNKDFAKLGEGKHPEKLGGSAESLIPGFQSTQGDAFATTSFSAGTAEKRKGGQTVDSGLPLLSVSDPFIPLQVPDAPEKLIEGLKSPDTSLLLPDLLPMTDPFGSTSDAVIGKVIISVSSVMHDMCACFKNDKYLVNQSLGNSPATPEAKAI

Row | IC50 | SMILES
1 | ≤ 10 nM | CC(C)(C)OC(=O)N1CCC[C@H]1CNc1ccn2ncc(-c3ccccc3)c2n1 [(S)-tert-butyl 2-(((3-phenylpyrazolo[1,5-a]pyrimidin-5-yl)amino)methyl)pyrrolidine-1-carboxylate]
2 | ≤ 1000 nM | Cc1ccc(-c2cnn3ccc(N4CC[C@H](N(C)C(=O)OC(C)C)C4)nc23)c(=O)n1C [(S)-isopropyl (1-(3-(1,6-dimethyl-2-oxo-1,2-dihydropyridin-3-yl)pyrazolo[1,5-a]pyrimidin-5-yl)pyrrolidin-3-yl)(methyl)carbamate]
3 | ≤ 1000 nM | CC(C)OC(=O)N1CCN(c2ccn3ncc(-c4ccnnc4)c3n2)CC1 [isopropyl 4-(3-(pyridazin-4-yl)pyrazolo[1,5-a]pyrimidin-5-yl)piperazine-1-carboxylate]
4 | ≤ 100 nM | CC(C)C[C@H](N)C(=O)N1CCN(c2ccn3ncc(Br)c3n2)CC1 [(S)-2-amino-1-(4-(3-bromopyrazolo[1,5-a]pyrimidin-5-yl)piperazin-1-yl)-4-methylpentan-1-one]
5 | ≤ 1000 nM | CC(C)OC(=O)N1CCC[C@H]1CN(C)c1ccn2nccc2n1 [(S)-isopropyl 2-((methyl(pyrazolo[1,5-a]pyrimidin-5-yl)amino)methyl)pyrrolidine-1-carboxylate]
6 | ≤ 1000 nM | COc1cccnc1-c1cnn2ccc(N3CCN(C(=O)OC(C)C)CC3)nc12 [isopropyl 4-(3-(3-methoxypyridin-2-yl)pyrazolo[1,5-a]pyrimidin-5-yl)piperazine-1-carboxylate]
7 | ≤ 100 nM | COc1ncccc1-c1cnn2ccc(NCCNC(=O)OC(C)C)nc12 [isopropyl (2-((3-(2-methoxypyridin-3-yl)pyrazolo[1,5-a]pyrimidin-5-yl)amino)ethyl)carbamate]
8 | ≤ 10 nM | COc1ncc(F)cc1-c1cnn2ccc(N(C)CCN(C)C(=O)OC(C)C)nc12 [isopropyl (2-((3-(5-fluoro-2-methoxypyridin-3-yl)pyrazolo[1,5-a]pyrimidin-5-yl)(methyl)amino)ethyl)(methyl)carbamate]
9 | ≤ 10 nM | CCc1ccccc1-c1cnn2ccc(NC[C@@H]3CCCN3C(=O)OC(C)(C)C)nc12 [(S)-tert-butyl 2-(((3-(2-ethylphenyl)pyrazolo[1,5-a]pyrimidin-5-yl)amino)methyl)pyrrolidine-1-carboxylate]
10 | ≤ 10 nM | COc1ncccc1-c1cnn2ccc(N3CCN4C(=O)N(CC(C)C)CC4C3)nc12 (stereo not drawn) [2-isobutyl-7-(3-(2-methoxypyridin-3-yl)pyrazolo[1,5-a]pyrimidin-5-yl)hexahydroimidazo[1,5-a]pyrazin-3(2H)-one]
11 | ≤ 10 nM | COc1ncccc1-c1cnn2ccc(N3CCN(C(=O)[C@@H]4COCCN4)CC3)nc12 [(S)-(4-(3-(2-methoxypyridin-3-yl)pyrazolo[1,5-a]pyrimidin-5-yl)piperazin-1-yl)(morpholin-3-yl)methanone]
12 | ≤ 100 nM | COc1ncccc1-c1cnn2ccc(N3CCN(C[C@@H](N)CC(C)C)CC3)nc12 [(S)-1-(4-(3-(2-methoxypyridin-3-yl)pyrazolo[1,5-a]pyrimidin-5-yl)piperazin-1-yl)-4-methylpentan-2-amine]
13 | ≤ 1000 nM | COc1ncc(F)cc1-c1cnn2ccc(N3CCN(CCC(F)(F)F)CC3)nc12 [3-(5-fluoro-2-methoxypyridin-3-yl)-5-(4-(3,3,3-trifluoropropyl)piperazin-1-yl)pyrazolo[1,5-a]pyrimidine]
14 | ≤ 1000 nM | COc1ncccc1-c1cnn2ccc(N3CCN(C(=O)OC(C)C)C3=O)nc12 [isopropyl 3-(3-(2-methoxypyridin-3-yl)pyrazolo[1,5-a]pyrimidin-5-yl)-2-oxoimidazolidine-1-carboxylate]
15 | ≤ 100 nM | COc1ncccc1-c1cnn2ccc(OCCN(C)C(=O)OC(C)C)nc12 [isopropyl (2-((3-(2-methoxypyridin-3-yl)pyrazolo[1,5-a]pyrimidin-5-yl)oxy)ethyl)(methyl)carbamate]
16 | ≤ 10 nM | COc1nc(C)ccc1-c1cnn2ccc(N3CCN(C(=O)OC(C)C)CC3)nc12 [isopropyl 4-(3-(2-methoxy-6-methylpyridin-3-yl)pyrazolo[1,5-a]pyrimidin-5-yl)piperazine-1-carboxylate]
17 | ≤ 100 nM | CC(C)OC(=O)N1CCN(c2ccn3ncc(-c4ccc(F)nc4)c3n2)CC1 [isopropyl 4-(3-(6-fluoropyridin-3-yl)pyrazolo[1,5-a]pyrimidin-5-yl)piperazine-1-carboxylate]

Row | IC50 | SMILES
18 | ≤ 100 nM | COc1ncc(F)cc1-c1cnn2ccc(N3CC[C@H](N(C)C(=O)OC(C)C)C3)nc12 [(S)-isopropyl (1-(3-(5-fluoro-2-methoxypyridin-3-yl)pyrazolo[1,5-a]pyrimidin-5-yl)pyrrolidin-3-yl)(methyl)carbamate]
19 | ≤ 10 nM | COc1ncc(C)cc1-c1cnn2ccc(N3CC[C@H](N(C)C(=O)OC(C)C)C3)nc12 [(S)-isopropyl (1-(3-(2-methoxy-5-methylpyridin-3-yl)pyrazolo[1,5-a]pyrimidin-5-yl)pyrrolidin-3-yl)(methyl)carbamate]
20 | ≤ 10 nM | COCCCOC(=O)N1CCN(c2ccn3ncc(-c4cccnc4OC)c3n2)CC1 [3-methoxypropyl 4-(3-(2-methoxypyridin-3-yl)pyrazolo[1,5-a]pyrimidin-5-yl)piperazine-1-carboxylate]
21 | ≤ 1000 nM | COC/C=C/c1cnn2ccc(N3CCN(C(=O)OC(C)C)CC3)nc12 [(E)-isopropyl 4-(3-(3-methoxyprop-1-en-1-yl)pyrazolo[1,5-a]pyrimidin-5-yl)piperazine-1-carboxylate]
22 | ≤ 100 nM | COc1ncccc1-c1cnn2ccc(N3CCN(CC(F)(F)F)CC3)nc12 [3-(2-methoxypyridin-3-yl)-5-(4-(2,2,2-trifluoroethyl)piperazin-1-yl)pyrazolo[1,5-a]pyrimidine]
23 | ≤ 10 nM | CCOC(=O)N1CCN(c2ccn3ncc(-c4cc(F)ccc4OC)c3n2)CC1 [ethyl 4-(3-(5-fluoro-2-methoxyphenyl)pyrazolo[1,5-a]pyrimidin-5-yl)piperazine-1-carboxylate]
24 | ≤ 100 nM | CCCC(=O)Nc1ccn2ncc(-c3cccnc3OC)c2n1 [N-(3-(2-methoxypyridin-3-yl)pyrazolo[1,5-a]pyrimidin-5-yl)butyramide]
25 | ≤ 100 nM | COc1ncccc1-c1cnn2ccc(N3CCN(C(=O)OCCN(C)C)CC3)nc12 [2-(dimethylamino)ethyl 4-(3-(2-methoxypyridin-3-yl)pyrazolo[1,5-a]pyrimidin-5-yl)piperazine-1-carboxylate]
26 | ≤ 100 nM | COc1ncccc1-c1cnn2ccc(N3CCN(c4noc(C(C)C)n4)CC3)nc12 [5-isopropyl-3-(4-(3-(2-methoxypyridin-3-yl)pyrazolo[1,5-a]pyrimidin-5-yl)piperazin-1-yl)-1,2,4-oxadiazole]
27 | ≤ 100 nM | COc1ccc(-c2cnn3ccc(N4CC[C@H](N(C)C(=O)OC(C)C)C4)nc23)c(OC)n1 [(S)-isopropyl (1-(3-(2,6-dimethoxypyridin-3-yl)pyrazolo[1,5-a]pyrimidin-5-yl)pyrrolidin-3-yl)(methyl)carbamate]
28 | ≤ 100 nM | COC(=O)c1ccc(-c2cnn3ccc(N4CCN(C(=O)OC(C)C)CC4)nc23)cc1 [isopropyl 4-(3-(4-(methoxycarbonyl)phenyl)pyrazolo[1,5-a]pyrimidin-5-yl)piperazine-1-carboxylate]
29 | ≤ 10 nM | CC(C)(C)OC(=O)N1CCC[C@H]1CNc1ccn2ncc(C(F)(F)F)c2n1 [(S)-tert-butyl 2-(((3-(trifluoromethyl)pyrazolo[1,5-a]pyrimidin-5-yl)amino)methyl)pyrrolidine-1-carboxylate]
30 | ≤ 100 nM | Cc1ccc(-c2cnn3ccc(N4CCN(C(=O)OC(C)C)CC4)nc23)cc1F [isopropyl 4-(3-(3-fluoro-4-methylphenyl)pyrazolo[1,5-a]pyrimidin-5-yl)piperazine-1-carboxylate]
31 | ≤ 10 nM | COc1ncccc1-c1cnn2ccc(N3CCN(C(=O)CC(C)C)CC3)nc12 [1-(4-(3-(2-methoxypyridin-3-yl)pyrazolo[1,5-a]pyrimidin-5-yl)piperazin-1-yl)-3-methylbutan-1-one]
32 | ≤ 10 nM | COc1cnccc1-c1cnn2ccc(N3CCN(C(=O)OC(C)C)CC3)nc12 [isopropyl 4-(3-(3-methoxypyridin-4-yl)pyrazolo[1,5-a]pyrimidin-5-yl)piperazine-1-carboxylate]
33 | ≤ 100 nM | COc1ncncc1-c1cnn2ccc(N3CCN(C(=O)OC(C)C)CC3)nc12 [isopropyl 4-(3-(4-methoxypyrimidin-5-yl)pyrazolo[1,5-a]pyrimidin-5-yl)piperazine-1-carboxylate]

Row | SMILES | IC50
34 | COc1nc(C)ccc1-c1cnn2ccc(NCCOC(C)(C)C)nc12 [N-(2-(tert-butoxy)ethyl)-3-(2-methoxy-6-methylpyridin-3-yl)pyrazolo[1,5-a]pyrimidin-5-amine] | ≤ 100 nM
35 | COc1ncccc1-c1cnn2ccc(N3C[C@H]4C[C@@H](C3)N4C(=O)OC(C)C)nc12 [(1R,5S)-isopropyl 3-(3-(2-methoxypyridin-3-yl)pyrazolo[1,5-a]pyrimidin-5-yl)-3,6-diazabicyclo[3.1.1]heptane-6-carboxylate] | ≤ 100 nM
36 | COc1nc(C)ccc1-c1cnn2ccc(NCCCOC(C)(C)C)nc12 [N-(3-(tert-butoxy)propyl)-3-(2-methoxy-6-methylpyridin-3-yl)pyrazolo[1,5-a]pyrimidin-5-amine] | ≤ 10 nM
